Earlier results in patent US12115245B2 (Xiamen University, priority 2019, dated 2024).
Where a SMILES comes first, the peptide text is derived from it.

Row | SMILES | solubility in water / aqueous solutions
1 | NC(=O)CC[C@H](N)C(=O)O [Gln, Glutamine] | low solubility in aqueous solutions
2 | C[C@H](N)C(=O)N[C@@H](CCC(N)=O)C(=O)O [Ala-Gln, L-alanyl-L-glutamine] (H-Ala-Gln-OH) | very soluble in water
